In patent US20240199455A1, “REMOVAL OF TOXIC OXYANIONS BY CO-CRYSTALLIZATION WITH SULFATE” (UT-Battelle, LLC, priority 2022, published 2024):

Experiments:
[1] = Crystallization at constant 2.5 mM sulfate and decreasing selenate (2.5 mM to 2.5 μM); details: 2.5 mM sulfate
Procedure: (§1) In a typical experiment, BIG chloride was added to wastewater containing sulfate, selenate, and/or selenite anions, and immediately upon addition, a white precipitate formed. The resulting suspensions were mixed for 24 h using a rotator set at 60 rpm inside an incubator set to 25 C. The samples were then removed and centrifuged for 10 min at 3000 rpm to separate the aqueous and solid phases. In the field, the suspended solids were filtered through a filter press. A 1 mL aliquot was then removed from each sample and passed through a 0.02 μm syringe filter to ensure any suspended solid was removed from the filtrate prior to diluting the samples in 2% HNO3 for ICP-MS analysis. To recover the BIG ligand, 2.1 equiv. of NaOH (or adjusted to a pH of 11) was added to a suspension of the BIG-oxyanion salts in a 15 mL polypropylene centrifuge tube. The suspension was mixed for 24 h at 60 rpm. The suspended BIG neutral solid was filtered from the supernatant solutions containing the oxyanions dissolved as soluble sodium salts. The BIG chloride salts were then regenerated by the addition of 0.1 M HCl to the neutral ligands. This process is depicted schematically in FIG. 5.
Crystallization experiments were carried out keeping sulfate at a constant concentration and decreasing the selenate concentration while maintaining constant ionic strength to mimic wastewater conditions. These experiments were carried out at 1 and 2 molar equivalents of BBIG or PyBIG. […] At lower selenate concentrations of 250, 25, and 2.5 μM, there is no discernible preference between the oxyanions. […] At the lowest concentration of selenate, the amount remaining in solution after crystallization is below the limit of detection of 0.02 ppb Se. The same trend is observed for PyBIG, with near quantitative removal of both sulfate and selenate.

[2] = Cocrystallization from equimolar sulfate/selenate mixture (2.5 mM each); details: for selenate removal / sulfate removal: 2.5 mM sulfate + 2.5 mM selenate; for ratio of sulfate to selenate % removal: equimolar mixture
Procedure: as §1
Concomitant crystallization of sulfate and selenate with either BBIG or PyBIG led to near quantitative removal of both oxyanions from equimolar aqueous mixtures. Cocrystallization experiments were carried out keeping the concentration of sulfate and selenate at near equimolar concentrations of 2.5 mM, while the BIG concentrations were increased gradually from 5 to 50 mM. […] At higher BBIG concentrations, the oxyanion removal remained near quantitative. Referring to the ratio of sulfate to selenate % removal, a ratio of 1.0 indicates there is no preference for sulfate over selenate. […] At relative ligand concentrations higher than 1 equivalent of BBIG, the ratio of removal efficiencies approaches 1, indicating no preference between the two oxyanions by crystallization under these conditions.
PyDIG also quantitatively removed sulfate and selenate at higher BIG concentrations. […] Increasing the PyBIG concentration achieved a ratio of approximately 1, indicating no discrimination between sulfate and selenate with excess PyBIG. With both BBIG and PyBIG, it appears the 2:1 BIG:oxyanions ratio is ideal for effectively removing SO4^2− and SeO4^2− anions from solution with minimal excess of the BIG ligands.

[3] = Cocrystallization from simulated Bull Run groundwater
Procedure: as §1
The efficacies of sulfate and selenate removal with BBIG and PyBIG ligands were next tested with simulated wastewater to determine if the EPA's 5 ppb discharge limit was achievable. The initial concentrations of sulfate and selenate in the simulated wastewater were based on typical values found in groundwaters monitored at the Bull Run steam plant of Tennessee Valley Authority (TVA). The simulated Bull Run groundwater contained an 8985-fold excess concentration of sulfate relative to selenate, with sulfate and selenate concentrations of 5.84±0.11 mM and 0.65±0.07 μM, respectively. Cocrystallization studies were performed with 1 and 2 mol equiv of BBIG or PyBIG. […] On the other hand, selenate removal was near quantitative with 2 equiv of BBIG (FIG. 4a).

[4] = Crystallization of individual oxyanion (5 mM) with BIG chloride, ICP-MS of filtrate; details: for selenate removal efficiency: 5 mM selenate alone; for sulfate removal efficiency: 5 mM sulfate alone
Procedure: as §1
Crystallization studies with BBIG and individual sulfate, selenate, or selenite anions (5 mM) were performed, while the concentration of BIGs was increased from one to ten molar equivalents. […] On the other hand, only approximately half (53.0%, FIG. 2a) of the selenite was removed from the solution with 1 equivalent of BBIG, which can be attributed to its propensity to form HScO3^−, by deprotonating BBIG in the process. […] Once again, selenite was removed to a lesser extent (70.7%) with 1 equivalent of PyBIG (FIG. 2b).

[5] = Cocrystallization from simulated Bull Run leachate
Procedure: as §1
A more concentrated simulated wastewater solution based on Bull Run's leachate water that has leached from fly ash beds was also tested with BBIG and PyBIG. The concentrations of sulfate and selenate in the simulated leachate were 48.49±0.7 mM and 2.37±0.16 μM, respectively, with sulfate concentration being 20,460 times higher than that of selenate. In the case of BBIG, 1 equiv removed 96.3% and 95.4% sulfate and selenate, respectively, while 2 equiv removed sulfate and selenate near quantitatively at 99.90% and 99.94%, respectively, with a final Se concentration of 8.59±0.62 ppb (1 equiv) and 0.20±0.01 ppb (2 equiv). In the case of PyBIG, 89.2% and 85.5% sulfate and selenate, respectively, were removed with 1 equiv, and 99.98% and 99.99%, respectively with 2 equiv. The final Se concentrations after cocrystallization with PyBIG were 27.23±0.92 ppb (1 equiv) and 0.02±0.01 ppb (2 equiv), reaching the limit of detection. […] In fact, the large excess of sulfate present in the wastewaters appears to help remove trace amounts of selenate by cocrystallization with BBIG or PyBIG, down to sub-ppb levels of Se.

[6] = 1 molar equivalent BIG relative to total oxyanion
[7] = BIG increased to 2 equivalents (PyBIG: increased concentration, plateau after 2 equivalents)
[8] = simulated groundwater (5.84 mM sulfate, 0.65 μM selenate), 1 equiv BIG
[9] = simulated groundwater, 2 equiv BIG
[10] = BIG at twice the oxyanion concentration (10 mM)
[11] = simulated leachate (48.49 mM sulfate, 2.37 μM selenate), 1 equiv BIG
[12] = simulated leachate, 2 equiv BIG

For `N=C(N)N/N=C/c1cccc(/C=N/NC(=N)N)n1` [PyBIG, pyridinedialdehydebis(iminoguanidinium)], the selenate removal ([1]; 1 equiv BIG) was 75.6%, the sulfate removal ([1]; 1 equiv BIG) was 82.3% and the selenate removal ([1]; 2 equiv BIG) was > 99.7%. The sulfate removal ([1]; 2 equiv BIG) was > 99.7%, the selenate removal [2, 6] was 75.6% and the sulfate removal [2, 6] was 82.3%. The selenate removal [2, 7] was 99.7%, the sulfate removal [2, 7] was 97.8% and the “ratio of sulfate to selenate % removal” value ([2]; 1 equivalent BIG, 1.0 = no preference) was 0.84. For the same molecule, the “ratio of sulfate to selenate % removal” value ([2]; more than 1 equivalent (excess) BIG) was “approximately 1”, the selenate removal [3, 8] was 81.6% and the sulfate removal [3, 8] was 88.5%. For the same molecule, the “final Se concentration” value ([3]; simulated groundwater, 1 equiv BIG) was 9.39±0.34 ppb, the “final Se concentration” value [3, 9] was 0.02±0.01 ppb and the selenate removal [3, 9] was 99.96%. The sulfate removal [3, 9] was 99.94%, the selenate removal efficiency ([4]; 5 mM (1 equiv) BIG) was 93.9% and the selenate removal efficiency [4, 10] was 99.8%. The selenite removal efficiency ([4]; 5 mM selenite alone, 1 equivalent BIG) was 70.7%, the sulfate removal efficiency ([4]; 5 mM (1 equiv) BIG, 24 h, 25 C) was 95.0% and the sulfate removal efficiency [4, 10] was 99.9%. For the same molecule, the sulfate-to-selenate removal ratio ([5]; simulated groundwater and leachate) was “approximately one”, the selenate removal [5, 11] was 85.5% and the sulfate removal [5, 11] was 89.2%. The “final Se concentration” value ([5]; simulated leachate, 1 equiv BIG) was 27.23±0.92 ppb, the “final Se concentration” value [5, 12] was 0.02±0.01 ppb and the selenate removal [5, 12] was 99.99%. For the same molecule, the sulfate removal [5, 12] was 99.98%.
